In PubChem BioAssay (NCI):
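Cells were grown in 96-well plates and exposed to each compound for 48 hours at five concentrations; endpoints were interpolated linearly between bracketing concentrations, or set to the highest concentration if not reached. GI50 is the concentration that inhibits growth by half. TGI marks complete inhibition of growth.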

Key:
Experiment in all cases: growth of human tumour cells (NCI), 48 h
MDA-MB-468 breast = system: MDA-MB-468 breast
OVCAR-3 ovarian = system: OVCAR-3 ovarian
EKVX NSCLC = system: EKVX NSCLC
HCC-2998 colon = system: HCC-2998 colon
MALME-3M melanoma = system: MALME-3M melanoma
HS 578T breast = system: HS 578T breast
U251 CNS = system: U251 CNS
NCI-H522 lung = system: NCI-H522 lung
HT29 colon = system: HT29 colon
ACHN renal = system: ACHN renal
OVCAR-5 ovarian = system: OVCAR-5 ovarian
KM12 colon = system: KM12 colon
CCRF-CEM leukemia = system: CCRF-CEM leukemia
OVCAR-4 ovarian = system: OVCAR-4 ovarian
UO-31 renal = system: UO-31 renal
COLO 205 colon = system: COLO 205 colon
SK-MEL-2 melanoma = system: SK-MEL-2 melanoma
SF-268 CNS = system: SF-268 CNS
SK-MEL-28 melanoma = system: SK-MEL-28 melanoma
HOP-62 NSCLC = system: HOP-62 NSCLC
MCF7 breast = system: MCF7 breast
HCT-116 colon = system: HCT-116 colon
LOX IMVI melanoma = system: LOX IMVI melanoma
SN12C renal = system: SN12C renal
SF-539 CNS = system: SF-539 CNS
786-0 renal = system: 786-0 renal
SK-MEL-5 melanoma = system: SK-MEL-5 melanoma
UACC-62 melanoma = system: UACC-62 melanoma
SNB-19 CNS = system: SNB-19 CNS
NCI-H23 lung = system: NCI-H23 lung
DU-145 prostate = system: DU-145 prostate
PC-3 prostate = system: PC-3 prostate
MDA-MB-231 breast = system: MDA-MB-231 breast
TK-10 renal = system: TK-10 renal
IGROV1 ovarian = system: IGROV1 ovarian
RPMI-8226 leukemia = system: RPMI-8226 leukemia
HCT-15 colon = system: HCT-15 colon
UACC-257 melanoma = system: UACC-257 melanoma
RXF 393 renal = system: RXF 393 renal
NCI-H226 lung = system: NCI-H226 lung
HOP-92 NSCLC = system: HOP-92 NSCLC
OVCAR-8 ovarian = system: OVCAR-8 ovarian
SW-620 colon = system: SW-620 colon
CAKI-1 renal = system: CAKI-1 renal
A549 NSCLC = system: A549 NSCLC
SNB-75 CNS = system: SNB-75 CNS
T-47D breast = system: T-47D breast
A498 renal = system: A498 renal
BT-549 breast = system: BT-549 breast
HL-60(TB) leukemia = system: HL-60(TB) leukemia
K-562 leukemia = system: K-562 leukemia
SF-295 CNS = system: SF-295 CNS
NCI-H460 lung = system: NCI-H460 lung
MOLT-4 leukemia = system: MOLT-4 leukemia
SK-OV-3 ovarian = system: SK-OV-3 ovarian
M14 melanoma = system: M14 melanoma
NCI/ADR-RES ovarian = system: NCI/ADR-RES ovarian
SR leukemia = system: SR leukemia
MDA-MB-435 = system: MDA-MB-435

CN1CCN(CCS(=O)(=O)Nc2cc(-c3ccc4ncnc(Nc5ccc(F)c(Cl)c5)c4c3)cnc2Cl)CC1
GI50 (MDA-MB-468 breast): 0.205 µM | TGI (MDA-MB-468 breast): 0.902 µM | GI50 (OVCAR-3 ovarian): 0.596 µM | TGI (OVCAR-3 ovarian): 2.99 µM | GI50 (EKVX NSCLC): 1.23 µM | TGI (EKVX NSCLC): 6.36 µM | GI50 (HCC-2998 colon): 1.6 µM | TGI (HCC-2998 colon): 6.2 µM | GI50 (MALME-3M melanoma): 0.726 µM | TGI (MALME-3M melanoma): 5.76 µM | GI50 (HS 578T breast): 0.32 µM | TGI (HS 578T breast): 3.75 µM | GI50 (U251 CNS): 3.12 µM | TGI (U251 CNS): > 100 µM | GI50 (NCI-H522 lung): 1.96 µM | TGI (NCI-H522 lung): 11.3 µM | GI50 (HT29 colon): 3.87 µM | TGI (HT29 colon): 21.5 µM | GI50 (ACHN renal): 3.67 µM | TGI (ACHN renal): > 100 µM | GI50 (OVCAR-5 ovarian): 2.56 µM | TGI (OVCAR-5 ovarian): 27 µM | GI50 (KM12 colon): 8.23 µM | TGI (KM12 colon): 31.5 µM | GI50 (CCRF-CEM leukemia): 0.579 µM | TGI (CCRF-CEM leukemia): 80.4 µM | GI50 (OVCAR-4 ovarian): 5.45 µM | TGI (OVCAR-4 ovarian): > 100 µM | GI50 (UO-31 renal): 2.07 µM | TGI (UO-31 renal): 13.4 µM | GI50 (COLO 205 colon): 2.74 µM | TGI (COLO 205 colon): 10.4 µM | GI50 (SK-MEL-2 melanoma): 2.32 µM | TGI (SK-MEL-2 melanoma): 7.79 µM | GI50 (SF-268 CNS): 1.8 µM | TGI (SF-268 CNS): 37.7 µM | GI50 (SK-MEL-28 melanoma): 2.39 µM | TGI (SK-MEL-28 melanoma): 37.4 µM | GI50 (HOP-62 NSCLC): 2.04 µM | TGI (HOP-62 NSCLC): 38.4 µM | GI50 (MCF7 breast): 1.16 µM | TGI (MCF7 breast): 15.3 µM | GI50 (HCT-116 colon): 4.18 µM | TGI (HCT-116 colon): 18.5 µM | GI50 (LOX IMVI melanoma): 1.17 µM | TGI (LOX IMVI melanoma): 2.92 µM | GI50 (SN12C renal): 3.25 µM | TGI (SN12C renal): > 100 µM | GI50 (SF-539 CNS): 1.82 µM | TGI (SF-539 CNS): 6.8 µM | GI50 (786-0 renal): 1.84 µM | TGI (786-0 renal): > 100 µM | GI50 (SK-MEL-5 melanoma): 1.61 µM | TGI (SK-MEL-5 melanoma): 4.34 µM | GI50 (UACC-62 melanoma): 1.18 µM | TGI (UACC-62 melanoma): 9.65 µM | GI50 (SNB-19 CNS): 1.97 µM | TGI (SNB-19 CNS): > 100 µM | GI50 (NCI-H23 lung): 2.8 µM | TGI (NCI-H23 lung): 15.1 µM | GI50 (DU-145 prostate): 3.23 µM | TGI (DU-145 prostate): > 100 µM | GI50 (PC-3 prostate): 2.09 µM | TGI (PC-3 prostate): 19.6 µM | GI50 (MDA-MB-231 breast): 1.74 µM | TGI (MDA-MB-231 breast): 4.13 µM | GI50 (TK-10 renal): 1.83 µM | TGI (TK-10 renal): 13.2 µM | GI50 (IGROV1 ovarian): 0.686 µM | TGI (IGROV1 ovarian): 2.93 µM | GI50 (RPMI-8226 leukemia): 13.5 µM | TGI (RPMI-8226 leukemia): 38 µM | GI50 (HCT-15 colon): 4.38 µM | TGI (HCT-15 colon): 43.6 µM | GI50 (UACC-257 melanoma): 3.02 µM | TGI (UACC-257 melanoma): 17.2 µM | GI50 (RXF 393 renal): 0.784 µM | TGI (RXF 393 renal): 3.85 µM | GI50 (NCI-H226 lung): 1.96 µM | TGI (NCI-H226 lung): > 100 µM | GI50 (HOP-92 NSCLC): 0.675 µM | TGI (HOP-92 NSCLC): 7.13 µM | GI50 (OVCAR-8 ovarian): 3.73 µM | TGI (OVCAR-8 ovarian): 23.1 µM | GI50 (SW-620 colon): 1.95 µM | TGI (SW-620 colon): 38.6 µM | GI50 (CAKI-1 renal): 1.33 µM | TGI (CAKI-1 renal): 19 µM | GI50 (A549 NSCLC): 11.1 µM | TGI (A549 NSCLC): 49.9 µM | GI50 (SNB-75 CNS): 0.458 µM | TGI (SNB-75 CNS): 11 µM | GI50 (T-47D breast): 0.221 µM | TGI (T-47D breast): 3.12 µM | GI50 (A498 renal): 1.03 µM | TGI (A498 renal): 4.4 µM | GI50 (BT-549 breast): 1.06 µM | TGI (BT-549 breast): 4.28 µM | GI50 (HL-60(TB) leukemia): 0.658 µM | TGI (HL-60(TB) leukemia): 23.7 µM | GI50 (K-562 leukemia): 4.5 µM | TGI (K-562 leukemia): > 100 µM | GI50 (SF-295 CNS): 3.01 µM | TGI (SF-295 CNS): 65.1 µM | GI50 (NCI-H460 lung): 5.85 µM | TGI (NCI-H460 lung): > 100 µM | GI50 (MOLT-4 leukemia): 2.5 µM | TGI (MOLT-4 leukemia): 7.08 µM | GI50 (SK-OV-3 ovarian): 1.59 µM | TGI (SK-OV-3 ovarian): 7.28 µM | GI50 (M14 melanoma): 3.34 µM | TGI (M14 melanoma): 20.5 µM | GI50 (NCI/ADR-RES ovarian): 66.6 µM | TGI (NCI/ADR-RES ovarian): > 100 µM | GI50 (SR leukemia): 2.06 µM | TGI (SR leukemia): 7.68 µM | GI50 (MDA-MB-435): 3.11 µM | TGI (MDA-MB-435): 16 µM
